Data published in patent US4241053A, “Novel nitrosourea compounds and process for preparing the same” (Tanabe Seiyaku Co., Ltd., priority 1978, dated 1980).

Legend:
[1] = tested on: Ehrlich ascites carcinoma; experiment: Preventive effect against the growth of Ehrlich ascites tumor (Method A); format: in vivo, mice (female ICR); conditions: for inhibition in vivo at 0.09 mg/kg: 0.09 mg/kg/day i.p.; for inhibition in vivo at 0.19 mg/kg: 0.19 mg/kg/day i.p.; for inhibition in vivo at 0.39 mg/kg: 0.39 mg/kg/day i.p.; for inhibition in vivo at 0.78 mg/kg: 0.78 mg/kg/day i.p.; for inhibition in vivo at 3.12 mg/kg: 3.12 mg/kg/day i.p.; for inhibition in vivo at 12.5 mg/kg: 12.5 mg/kg/day i.p.; for minimal effective dose: minimum dose with 100% inhibition of ascites tumor, unit from dose column, read-out: MED (Minimum Effective Dose); for inhibition in vivo at 1.56 mg/kg: 1.56 mg/kg/day i.p.; for inhibition in vivo at 25 mg/kg: 25 mg/kg/day i.p.
Protocol: (§1) (A) Preventive effect against the growth of Ehrlich ascites tumor:
(§2) 10^6 tumor cells of Ehrlich ascites carcinoma were inoculated intraperitoneally into a group of five femal mice (ICR mice, body weight: 19-23 g). A test compound was dissolved in a physiological saline solution [In the case where CCNU was employed as the test compound, said compound was suspended in a physiological saline solution containing 0.1% NIKKOL HCO-60 (trademark; a surface active agent manufactured by Nikko Chemicals Co. Ltd.)] and administered intraperioneally to the mice. The administration of the test compound was begun 24 hours after the inoculation of the tumor cells and performed once a day for 5 days. The volume of ascites in the treated mice were measured after 7 days of the experiment.
(§3) ^a T = the average volume of ascites in the treated mice
(§4) C = the average volume of ascites in the untreated mice (control group of
(§5) 100% inhibition for the growth of Ehrlich ascites tumor in mice without
(§6) causing the death of said mice)
(§7) 100% inhibition for the growth of said ascites tumor)
(§8) ^e Therapeutic index = MTD/MED
(§9) *the number of mice died/the number of mice used

[2] = as above; format: in vivo, mice (female ICR); conditions: mouse, in vivo, ip; maximum dose with 100% inhibition of Ehrlich ascites tumor without causing death; unit from dose column; read-out: MTD (Maximum Tolerated Dose)
Protocol: as §1, §2, §3, §4, §5, §6, §7, §8, §9

Leukemia L-1210 = experiment: Effect on the life span of mice implanted with leukemic cells of L-1210 (Method B); format: in vivo, mice (male BDF1); conditions: for ILS at 6.25 mg/kg / ILS at 12.5 mg/kg / ILS at 25 mg/kg / ILS at 50 mg/kg / responders at 6.25 mg/kg / responders at 12.5 mg/kg / responders at 25 mg/kg / responders at 50 mg/kg: Mus musculus, L1210, ip, once a day for 5 days; for ILS at 6.25 mg/kg / ILS at 12.5 mg/kg / ILS at 25 mg/kg / ILS at 50 mg/kg: 120 h, read-out: ILS (Increase in Life Span); for ILS at 6.25 mg/kg / responders at 6.25 mg/kg: 6.25 mg/kg/day i.p.; for ILS at 12.5 mg/kg / responders at 12.5 mg/kg: 12.5 mg/kg/day i.p.; for ILS at 25 mg/kg / responders at 25 mg/kg: 25 mg/kg/day i.p.; for ILS at 50 mg/kg / responders at 50 mg/kg: 50 mg/kg/day i.p.; for responders at 6.25 mg/kg / responders at 12.5 mg/kg / responders at 25 mg/kg / responders at 50 mg/kg: 1440 h, read-out: 60-day survivors (mice survived for 60 days/mice used) (converted)
Protocol: (B) Effect on the life span of mice implanted with leukemic cells of L-1210:
10^5 leukemic cells of L-1210 were inoculated intraperitoneally into a group of four or six male mice (BDF1 mice, body weight: 19-23 g). A test compound was dissolved in a physiological saline solution and administered intraperitoneally to the mice. The administration of the test compound was begun 24 hours after the inoculation of the leukemic cells and performed once a day for 5 days. The survival days of the treated mice were observed.
^a T = the mean survival days of the treated mice
C = the mean survival days of the untreated mice (control group of mice)
^b ILS(Increase in Life Span) =-
^c 60day survivors = the number of mice survived for 60 days/the

[3] = 100 mg/kg/day i.p., once a day for 5 days
[4] = Mus musculus, Ehrlich, ip, 168 h, once a day for 5 days, read-out: Inhibition ratio
[5] = Mus musculus, Ehrlich, ip, 168 h, 50 mg/kg/day i.p., once a day for 5 days, read-out: Inhibition ratio
[6] = Mus musculus, Ehrlich, ip, 168 h

In the case of `COCCCN(C(=O)N(CCCl)N=O)C1OC[C@H](O)[C@H](O)[C@H]1O` (stereo partly drawn) [Compound 4, 1-(2-chloroethyl)-1-nitroso-3-(3-methoxy-n-propyl)-3-(L-arabinopyranosyl)urea], the “Toxic (number of mice died/number of mice used)” value [1, 3] is reported as 2/5, the “therapeutic index (M.T.D./M.E.D.) relative to that of GANU” value ([1]; Ehrlich ascites tumor, greater than that of GANU) is reported as 4 times and the “Therapeutic index (MTD/MED)” value [1] is reported as 128. The inhibition in vivo at 0.09 mg/kg [1, 4] was 18.4%, the inhibition in vivo at 0.19 mg/kg [1, 4] was 44.9% and the inhibition in vivo at 0.39 mg/kg [1, 4] was 100%. The inhibition in vivo at 0.78 mg/kg [1, 4] was 100%, the inhibition in vivo at 3.12 mg/kg [1, 4] was 100% and the inhibition in vivo at 12.5 mg/kg [1, 4] was 100%. For the same compound, the inhibition in vivo at 50 mg/kg [1, 5] was 100%, the minimal effective dose [1, 6] was 0.39 mg/kg/day and the MTD at 168 h [2] was 50 mg/kg/day. The ILS at 6.25 mg/kg (Leukemia L-1210) was 97.2%, the ILS at 12.5 mg/kg (Leukemia L-1210) was > 324% and the ILS at 25 mg/kg (Leukemia L-1210) was > 733%. The ILS at 50 mg/kg (Leukemia L-1210) was > 733%, the responders at 6.25 mg/kg (Leukemia L-1210) was 0% and the responders at 12.5 mg/kg (Leukemia L-1210) was 33.3%. For the same compound, the responders at 25 mg/kg (Leukemia L-1210) was 100% and the responders at 50 mg/kg (Leukemia L-1210) was 100%.
In the case of `COC(C)CN(C(=O)N(CCCl)N=O)C1OC[C@H](O)[C@H](O)[C@H]1O` (stereo partly drawn) [Compound 5, 1-(2-chloroethyl)-1-nitroso-3-(2-methoxy-n-propyl)-3-(L-arabinopyranosyl)urea], the “Toxic (number of mice died/number of mice used)” value [1, 3] is reported as 4/5, the “Therapeutic index (MTD/MED)” value [1] is reported as 128 and the inhibition in vivo at 0.09 mg/kg [1, 4] is reported as 8.2%. It also gave an inhibition in vivo at 0.19 mg/kg [1, 4] of 36.7%, an inhibition in vivo at 0.39 mg/kg [1, 4] of 100% and an inhibition in vivo at 0.78 mg/kg [1, 4] of 100%. It also gave an inhibition in vivo at 3.12 mg/kg [1, 4] of 100%, an inhibition in vivo at 12.5 mg/kg [1, 4] of 100% and an inhibition in vivo at 50 mg/kg [1, 5] of 100%. It also gave a minimal effective dose [1, 6] of 0.39 mg/kg/day, an MTD at 168 h [2] of 50 mg/kg/day and an ILS at 6.25 mg/kg (Leukemia L-1210) of 91.7%. The ILS at 12.5 mg/kg (Leukemia L-1210) was > 529%, the ILS at 25 mg/kg (Leukemia L-1210) was > 733% and the ILS at 50 mg/kg (Leukemia L-1210) was > 678%. It also gave a responders at 6.25 mg/kg (Leukemia L-1210) of 0%, a responders at 12.5 mg/kg (Leukemia L-1210) of 75% and a responders at 25 mg/kg (Leukemia L-1210) of 100%. For the same compound, the responders at 50 mg/kg (Leukemia L-1210) was 75% and the “increase in the average life span” value (Leukemia L-1210; daily dose 0.5 mg/kg i.p., five consecutive days) was “about 30%”.
In the case of `COCCN(C(=O)N(CCCl)N=O)C1OC[C@@H](O)[C@H](O)[C@H]1O` (stereo partly drawn) [Compound 10, 1-(2-chloroethyl)-1-nitroso-3-(2-methoxyethyl)-3-(D-xylopyranosyl)urea], the “Toxic (number of mice died/number of mice used)” value ([1]; 50 mg/kg/day i.p., once a day for 5 days) is reported as 2/5, the “Therapeutic index (MTD/MED)” value [1] is reported as 64 and the inhibition in vivo at 0.04 mg/kg ([1]; Mus musculus, Ehrlich, ip, 168 h, 0.04 mg/kg/day i.p., once a day for 5 days, read-out: Inhibition ratio) is reported as 2.1%. For the same compound, the inhibition in vivo at 0.09 mg/kg [1, 4] was 25%, the inhibition in vivo at 0.19 mg/kg [1, 4] was 89.6% and the inhibition in vivo at 0.39 mg/kg [1, 4] was 100%. It also gave an inhibition in vivo at 1.56 mg/kg [1, 4] of 100%, an inhibition in vivo at 6.23 mg/kg ([1]; Mus musculus, Ehrlich, ip, 168 h, 6.23 mg/kg/day i.p., once a day for 5 days, read-out: Inhibition ratio) of 100% and an inhibition in vivo at 25 mg/kg [1, 4] of 100%. It also gave a minimal effective dose [1, 6] of 0.39 mg/kg/day and an MTD at 168 h [2] of 25 mg/kg/day.
For `COCCN(C(=O)N(CCCl)N=O)C1O[C@H](CO)[C@@H](O)[C@H](O)[C@@H]1O` (stereo partly drawn) [Compound 11, 1-(2-chloroethyl)-1-nitroso-3-(2-methoxyethyl)-3-(D-mannopyranosyl)urea], the “Toxic (number of mice died/number of mice used)” value ([1]; 800 mg/kg/day i.p., once a day for 5 days) was 5/5, the “Therapeutic index (MTD/MED)” value [1] was 64 and the inhibition in vivo at 1.56 mg/kg [1, 4] was 14%. It also gave an inhibition in vivo at 3.12 mg/kg [1, 4] of 64%, an inhibition in vivo at 6.25 mg/kg ([1]; Mus musculus, Ehrlich, ip, 168 h, 6.25 mg/kg/day i.p., once a day for 5 days, read-out: Inhibition ratio) of 100% and an inhibition in vivo at 25 mg/kg [1, 4] of 100%. It also gave an inhibition in vivo at 100 mg/kg ([1]; Mus musculus, Ehrlich, ip, 168 h, 100 mg/kg/day i.p., once a day for 5 days, read-out: Inhibition ratio) of 100%, an inhibition in vivo at 400 mg/kg ([1]; Mus musculus, Ehrlich, ip, 168 h, 400 mg/kg/day i.p., once a day for 5 days, read-out: Inhibition ratio) of 100% and a minimal effective dose [1, 6] of 6.25 mg/kg/day. For the same compound, the MTD at 168 h [2] was 400 mg/kg/day.
